Source: the RepoRT retention time repository (doi:10.1016/j.jhazmat.2019.121712)

Experiment: Thermo Scientific Acclaim RSLC 120 C18, 100 × 2.1 mm, 2.2 µm, 30 °C; A: 90% water + 10% methanol + 0.01% formic acid + 5 mM ammonium formate; B: methanol + 0.01% formic acid + 5 mM ammonium formate; gradient (min/%B) 0.1/1 3/39 14/99.9 16/99.9
Details: stereoisomer not certain
`CC1(C)C(C(=O)c2cn(CC3CCOCC3)c3ccccc23)C1(C)C` gave an LC retention time of 11.4 min.
`CN1CCN2c3ncccc3Cc3ccccc3C2C1` (stereo unspecified) showed an LC retention time of 5.29 min.
Compound `COC1CC(OC2C(C)OC(OC3C(C)=CCC4CC(CC5(CCC(C)C(C(C)C)O5)O4)OC(=O)C4C=C(C)C(O)C5OCC(=CC=CC3C)C45O)CC2OC)OC(C)C1O` (stereo unspecified) has an LC retention time of 14.2 min.
For `NS(=O)(=O)c1cc(C(=O)O)cc(N2CCCC2)c1Oc1ccccc1`, the LC retention time was 7.17 min.
Work on `CCN1CCN(C(=O)NC(C(=O)NC2C(=O)N3C(C(=O)O)=C(CSc4nnnn4C)CSC23)c2ccc(O)cc2)C(=O)C1=O` (stereo unspecified) yielded an LC retention time of 4.36 min.
`NN1CC(=O)N2C(Cc3c([nH]c4ccccc34)C2c2ccc3c(c2)OCO3)C1=O` (stereo unspecified) gave an LC retention time of 7.84 min.
`COCC(=O)N(c1c(C)cccc1C)N1CCOC1=O` gave an LC retention time of 6.29 min.
Compound `CN1CCC(=C2c3ccccc3C=Cc3ccccc32)CC1` has an LC retention time of 7.89 min.
Compound `CCCCCn1cc(C(=O)c2ccc(CC)c3ccccc23)c2ccccc21` has an LC retention time of 13.2 min.
Work on `COc1ccc2nc(S(=O)Cc3ncc(C)c(OC)c3C)[nH]c2c1` (stereo unspecified) yielded an LC retention time of 7.81 min.
In the case of `CCOS(=O)(=O)O`, the LC retention time is reported as 1.58 min.
Work on `CCCCCn1cc(C(=O)NC(C(N)=O)C(C)(C)C)c2ccccc21` (stereo unspecified) yielded an LC retention time of 11.1 min.
`CCCN(CCC)c1c([N+](=O)[O-])cc(S(N)(=O)=O)cc1[N+](=O)[O-]` showed an LC retention time of 10.3 min.
Work on `CNCC(O)c1cccc(NS(C)(=O)=O)c1` (stereo unspecified) yielded an LC retention time of 2.54 min.
For `CC1C(=O)OC2CC[N+]3([O-])CC=C(COC(=O)C(C)(O)C1(C)O)C23` (stereo unspecified), the LC retention time was 3.19 min.
In the case of `CC1=NNC(=O)N(N=Cc2cccnc2)C1`, the LC retention time is reported as 4.01 min.
Compound `CC(CC(c1ccccc1)c1ccccc1)NC(C)(C)C` (stereo unspecified) has an LC retention time of 7.91 min.
In the case of `CC(Cn1cnc2c(N)ncnc21)OCP(=O)(O)O` (stereo unspecified), the LC retention time is reported as 2.69 min.
`COc1cc2nc(N3CCN(C(=O)C4CCCO4)CC3)nc(N)c2cc1OC` (stereo unspecified) gave an LC retention time of 4.92 min.
Compound `CCOP(=S)(NC(C)CC)Oc1cc(C)ccc1[N+](=O)[O-]` (stereo unspecified) has an LC retention time of 11.2 min.
Work on `COc1ccc(C2Sc3ccccc3N(CCN(C)C)C(=O)C2O)cc1` (stereo unspecified) yielded an LC retention time of 6.41 min.
For `CC12CCC3c4ccc(O)c(O)c4CCC3C1CCC2=O` (stereo unspecified), the LC retention time was 8.69 min.
Work on `CCOP(=O)(OCC)OCC` yielded an LC retention time of 6.16 min.
With `CCC(C)(C)c1ccc(CC(C)CN2CC(C)OC(C)C2)cc1` (stereo unspecified) the LC retention time was 12.9 min.
In the case of `O=C(O)c1ccc2n[nH]nc2c1`, the LC retention time is reported as 3.81 min.
Compound `CNC(=N[N+](=O)[O-])NCC1CCOC1` (stereo unspecified) has an LC retention time of 3.59 min.
Work on `CON=C1CC2(CC3CC(CC=C(C)CC(C)C=CC=C4COC5C(O)C(C)=CC(C(=O)O3)C45O)O2)OC(C(C)=CC(C)C)C1C` (stereo unspecified) yielded an LC retention time of 13.8 min.
In the case of `COc1ccc(OC)c(CC(C)N)c1` (stereo unspecified), the LC retention time is reported as 4.78 min.
Compound `Cc1ccsc1C=CC1=NCCCN1C` has an LC retention time of 4.36 min.
For `NNC(=O)c1ccncc1`, the LC retention time was 2.18 min.
In the case of `CC(NC(=O)C(N)CC(=O)O)C(=O)NC1C(C)(C)SC1(C)C` (stereo unspecified), the LC retention time is reported as 6.09 min.
For `CCC(C)C1OC2(CCC1C)CC1CC(CC=C(C)C(OC3CC(OC)C(OC4CC(OC)C(O)C(C)O4)C(C)O3)C(C)C=CC=C3COC4C(O)C(C)=CC(C(=O)O1)C34O)O2` (stereo unspecified), the LC retention time was 14.4 min.
Work on `CCCCCn1cc(C(=O)NCc2ccccc2)c2ccccc21` yielded an LC retention time of 11.2 min.
`CC=CC(=O)N(CC)c1ccccc1C` gave an LC retention time of 9.24 min.
For `NC(N)=Nc1nc(CSCCC(N)=NS(N)(=O)=O)cs1`, the LC retention time was 3.24 min.
Compound `Cc1ncc(CO)c(CO)c1O` has an LC retention time of 2.18 min.
For `CN1CCCC(CC2c3ccccc3Sc3ccccc32)C1` (stereo unspecified), the LC retention time was 8.51 min.
For `COP(=S)(OC)SCn1nnc2ccccc2c1=O`, the LC retention time was 8.89 min.
In the case of `C#CCNC(C)Cc1ccccc1` (stereo unspecified), the LC retention time is reported as 4.66 min.
Compound `CC(C)c1nc(CN(C)C(=O)NC(C(=O)NC(Cc2ccccc2)CC(O)C(Cc2ccccc2)NC(=O)OCc2cncs2)C(C)C)cs1` (stereo unspecified) has an LC retention time of 11.1 min.
`COc1ccccc1OCCNCC(O)COc1cccc2[nH]c3ccccc3c12` (stereo unspecified) showed an LC retention time of 6.91 min.
With `CCCc1nn(C)c2c(=O)[nH]c(-c3cc(S(=O)(=O)N4CCNCC4)ccc3OCC)nc12` the LC retention time was 7.35 min.
In the case of `Cc1ccc(C(C)NC(=O)C(NC(=O)OC(C)C)C(C)C)cc1` (stereo unspecified), the LC retention time is reported as 9.82 min.
In the case of `CCNC1CC(C)S(=O)(=O)c2sc(S(N)(=O)=O)cc21` (stereo unspecified), the LC retention time is reported as 3.19 min.
With `CC(N)Cc1ccc2occc2c1` (stereo unspecified) the LC retention time was 4.79 min.
In the case of `CN(C)CCCN1c2ccccc2CCc2ccccc21`, the LC retention time is reported as 8.08 min.
Work on `COC1CC(OC2C(C)OC(OC3C(C)=CCC4CC(CC5(C=CC(C)C(C(C)C)O5)O4)OC(=O)C4C=C(C)C(O)C5OCC(=CC=CC3C)C45O)CC2OC)OC(C)C1O` (stereo unspecified) yielded an LC retention time of 13.4 min.
Work on `NC(=O)C1CCCN1` (stereo unspecified) yielded an LC retention time of 1.31 min.
Work on `CC1(C)OC2COC3(COS(N)(=O)=O)OC(C)(C)OC3C2O1` (stereo unspecified) yielded an LC retention time of 6.08 min.
For `CCC1OC(=O)C(C)C(OC2CC(C)(OC)C(O)C(C)O2)C(C)C(OC2OC(C)CC(N(C)C)C2O)C(C)(O)CC(C)C(=NOCOCCOC)C(C)C(O)C1(C)O` (stereo unspecified), the LC retention time was 9.23 min.
`Oc1ccc2c3c1OC1C(O)C=CC4C(C2)NCCC341` (stereo unspecified) showed an LC retention time of 2.71 min.
`C1=CCC(c2cccnc2)NC1` (stereo unspecified) gave an LC retention time of 2.68 min.
Compound `CC(CS)C(=O)N1CCCC1C(=O)O` (stereo unspecified) has an LC retention time of 4.59 min.
For `Cc1cc2n[nH]nc2cc1C`, the LC retention time was 6.76 min.
`CCNc1nc(NCC)[nH]c(=O)n1` gave an LC retention time of 4.21 min.
For `CC(O)CCCn1cc(C(=O)c2cccc3ccccc23)c2ccccc21` (stereo unspecified), the LC retention time was 10.1 min.
Compound `Cc1c(NC(C)C)c(=O)n(-c2ccccc2)n1C` has an LC retention time of 5.72 min.
`COc1ccc(-c2ccccc2)cc1NNC(=O)OC(C)C` gave an LC retention time of 9.87 min.
`CCCNC1CCc2nc(N)sc2C1` (stereo unspecified) gave an LC retention time of 2.64 min.
In the case of `CCC(C)C1OC2(C=CC1C)CC1CC(CC=C(C)C(OC3CC(OC)C(OC4CC(OC)C(NC)C(C)O4)C(C)O3)C(C)C=CC=C3COC4C(O)C(C)=CC(C(=O)O1)C34O)O2` (stereo unspecified), the LC retention time is reported as 12.4 min.
`CSc1ccc2c(c1)N(CCC1CCCCN1C)c1ccccc1S2` (stereo unspecified) gave an LC retention time of 9.34 min.
Compound `CCCCCCCn1cc(C(=O)c2cccc3ccccc23)c2ccccc21` has an LC retention time of 13.4 min.
For `CCc1cnc(C2=NC(C)(C(C)C)C(=O)N2)c(C(=O)O)c1` (stereo unspecified), the LC retention time was 5.6 min.
`CNCC(c1ccc(OC)cc1)C1(O)CCCCC1` (stereo unspecified) gave an LC retention time of 6.18 min.
`CN(C)C(=N)N=C(N)N` gave an LC retention time of 1.39 min.
With `O=C(O)C1C2CCC(O2)C1C(=O)O` (stereo unspecified) the LC retention time was 3.2 min.
In the case of `COC1(C)CC(c2ccccc2)c2c(c3ccccc3oc2=O)O1` (stereo unspecified), the LC retention time is reported as 11.1 min.
`CN1CCCCC1CCN1c2ccccc2Sc2ccc(S(C)=O)cc21` (stereo unspecified) showed an LC retention time of 6.74 min.
In the case of `CN(C)CCOCC(=O)NC12CC3CC(CC(C3)C1)C2`, the LC retention time is reported as 6.64 min.
`CC(=O)Oc1ccc(C(c2ccc(OC(C)=O)cc2)c2ccccn2)cc1` showed an LC retention time of 8.92 min.
In the case of `CCC(=O)c1ccc2c(c1)N(CCCN(C)C)c1ccccc1S2`, the LC retention time is reported as 8.49 min.
Work on `COc1cc(OC)nc(NC(=O)NS(=O)(=O)N(C)S(C)(=O)=O)n1` yielded an LC retention time of 6.77 min.
For `CC(C)(C(=O)O)c1ccc(C(O)CCCN2CCC(C(O)(c3ccccc3)c3ccccc3)CC2)cc1` (stereo unspecified), the LC retention time was 7.68 min.
`CCCCc1c(C)nc(N(C)C)[nH]c1=O` showed an LC retention time of 7.7 min.
For `CC=CCC1=C(C)C(OC(=O)C2C(C=C(C)C(=O)OC)C2(C)C)CC1=O` (stereo unspecified), the LC retention time was 11.6 min.
Work on `CCCCOc1cc(C(=O)NCCN(CC)CC)c2ccccc2n1` yielded an LC retention time of 8.41 min.
`O=C(OC1CN2CCC1CC2)N1CCc2ccccc2C1c1ccccc1` (stereo unspecified) showed an LC retention time of 7.95 min.
For `COP(N)(=S)Oc1ccccc1C(=O)OC(C)C` (stereo unspecified), the LC retention time was 8.32 min.
`Nc1ccc([N+](=O)[O-])cc1C(=O)c1ccccc1` gave an LC retention time of 8.99 min.
`CCCCCn1cc(C(=O)Cc2cccc(OC)c2)c2ccccc21` showed an LC retention time of 11.6 min.
With `CC[N+]1([O-])CCCC1CNC(=O)c1cc(S(=O)(=O)CC)c(N)cc1OC` (stereo unspecified) the LC retention time was 4.33 min.
In the case of `CCNc1nc(NC(C)CC)nc(OC)n1` (stereo unspecified), the LC retention time is reported as 8.79 min.
With `CCN(CC)CCNC(=O)c1ccc(N)cc1` the LC retention time was 2.83 min.
In the case of `NC1CC1c1ccccc1` (stereo unspecified), the LC retention time is reported as 4.27 min.
With `CC12CCC(=O)C=C1CCC1C2CCC2(C)C(C(=O)COC(=O)CCc3ccccc3)CCC12` (stereo unspecified) the LC retention time was 13 min.
Compound `COc1ccc(CC(C)NCC(O)c2ccc(O)c(NC=O)c2)cc1` (stereo unspecified) has an LC retention time of 4.79 min.
In the case of `CC(C)C1CCC(C(=O)NC(Cc2ccccc2)C(=O)O)CC1` (stereo unspecified), the LC retention time is reported as 10.4 min.
Compound `CC(C)OC(=O)Nc1ccccc1` has an LC retention time of 8.11 min.
`CC(C)(C)NCC(O)COc1ccccc1C#N` (stereo unspecified) showed an LC retention time of 4.66 min.
Work on `CCC(=C(c1ccccc1)c1ccc(OCCN(C)C)cc1)c1ccccc1` yielded an LC retention time of 11 min.
In the case of `CC(C)(ON=C(C(=O)NC1C(=O)N2C(C(=O)[O-])=C(C[n+]3ccccc3)CSC12)c1csc(N)n1)C(=O)O` (stereo unspecified), the LC retention time is reported as 3.38 min.
Compound `CN=CNc1ccc(C)cc1C` has an LC retention time of 4.44 min.
Work on `CNC(=O)Oc1cc(C)cc(C)c1C` yielded an LC retention time of 8.4 min.
`Cc1ccsc1C(=CCCN1CCCC(C(=O)O)C1)c1sccc1C` (stereo unspecified) gave an LC retention time of 8.43 min.
For `CSc1ccc2c(c1)N(CCC1CCCCN1C)c1ccccc1S2=O` (stereo unspecified), the LC retention time was 6.64 min.
Work on `CCN(CC)CCNC(=O)c1cc(S(C)(=O)=O)ccc1OC` yielded an LC retention time of 3.41 min.
`c1ccc(CN2CCNCC2)cc1` showed an LC retention time of 4.23 min.
In the case of `CCCCC(CC)CN1C(=O)C2C3C=CC(C3)C2C1=O` (stereo unspecified), the LC retention time is reported as 11.6 min.
Compound `COc1cc(Cc2cnc(N)nc2N)cc(OC)c1OC` has an LC retention time of 4.06 min.
Work on `O=C1CC2OCC=C3CN4CCC56c7ccccc7N1C5C2C3CC46` (stereo unspecified) yielded an LC retention time of 4.16 min.
`CCCCCn1nc(C(=O)NC(C(N)=O)C(C)(C)C)c2ccccc21` (stereo unspecified) gave an LC retention time of 11.2 min.
`c1ccc2scnc2c1` showed an LC retention time of 6.88 min.
In the case of `Cc1noc(NS(=O)(=O)c2ccc(N)cc2)c1C`, the LC retention time is reported as 4.71 min.
In the case of `CNC(C)C(O)c1ccc(O)cc1` (stereo unspecified), the LC retention time is reported as 2.05 min.
`CCSC(=O)N1CCCCCC1` gave an LC retention time of 9.89 min.
Work on `CCCc1nn(C)c2c(=S)nc(-c3cc(S(=O)(=O)N4CCN(C)CC4)ccc3OCC)[nH]c12` yielded an LC retention time of 10.6 min.
